Patent US20090016959A1, “Delivery of antibodies to the central nervous system” (priority 2005, published 2009)
Residues, ends and D or L forms follow the SMILES beside them.

Assays:
[1] = test system: bovine brain capillary endothelial cells; experiment: In vitro BBB model, second screening level with iodinated peptides (cpm ratios); format: in vitro ADME
Method: (§1) This BBCEC medium was changed three times a week.
Two iodo-beads were used for each protein.
Results were expressed as cpm ratios. […] The ratio between the number of [^125I]-peptide found in the bottom chamber of filters covered with or without endothelial cells was also calculated (+cells/−cells).

[2] = test system: bovine brain capillary endothelial cells; experiment: In vitro BBB model, first level of selection: peptides in lower chamber visualized by Coomassie blue; format: in vitro ADME; details: first level of screening; 90 minutes at 37° C
Source text: as §1
The medium was changed twice a week.

[3] = test system: in vitro model of the blood brain barrier; experiment: Transcytosis capacity across the in vitro BBB model (Pe); format: in vitro ADME, bovine
Method: as §1
Transcytosis capacity of Aprotinin-Paclitaxel conjugate was determined and is reported below in Table 5.

Row | Compound | Ratios −cells/initial [1] | Ratios +cells/−cells ([1]; [125I]-peptide in bottom chamber of filters with versus without endothelial cells) | Ratios +cells/initial ([1]; [125I]-peptide, cpm in bottom chamber / total cpm added, filter covered with endothelial cells, 90 minutes at 37° C) | peptides detected in the lower side of the chambers by Coomassie blue staining [2] | Transcytosis (Pe 10^−3 cm/min) [3]
1 | C[C@@H](O)[C@H](NC(=O)[C@H](CCCCN)NC(=O)[C@H](Cc1ccccc1)NC(=O)[C@H](CC(N)=O)NC(=O)[C@H](CC(N)=O)NC(=O)[C@H](CCCNC(=N)N)NC(=O)[C@H](CCCCN)NC(=O)CNC(=O)[C@H](CCCNC(=N)N)NC(=O)[C@H](CS)NC(=O)[C@H](CS)NC(=O)CNC(=O)[C@H](Cc1ccc(O)cc1)NC(=O)[C@H](Cc1ccccc1)NC(=O)[C@H](Cc1ccccc1)NC(=O)[C@@H](NC(=O)[C@@H](N)CS)[C@@H](C)O)C(=O)N[C@@H](CCC(=O)O)C(=O)N[C@@H](CCC(=O)O)C(=O)N[C@@H](Cc1ccc(O)cc1)C(=O)O [Peptide 71] (H-CTFFYGCCRGKRNNFKTEEY-OH; N-terminus and C-terminus assumed) | 0.072 | 0.37 | 0.027 | detected in the lower side of the chambers | 
2 | aprotinin |  |  |  |  | 0.2 10^−3 cm/min
